Laboratory results: patent US10724000B2, “Small molecule based conversion of somatic cells into neural crest cells” (Hoffmann-La Roche Inc., priority 2013, dated 2020)

Experiments:
AMPK = experiment: Kinase selectivity profiling (ProfilerPro Kinase Kits); assay type: biochemical; conditions: FIG. 1C
Protocol: (§1) Kinase Selectivity Profiling Kinase selectivity profiling was performed using ProfilerPro Kinase Kits from Caliper (PerkinElmer) according to the manufacturer's instructions.

MSK1 = molecular target: T1, MSK1 (Homo sapiens, UniProt O75582); experiment: as above; assay type: biochemical; conditions: FIG. 1C
T1 construct: purchased Caliper (PerkinElmer) ProfilerPro Kinase Kits
T1 sequence (O75582 whole entry, species assumed): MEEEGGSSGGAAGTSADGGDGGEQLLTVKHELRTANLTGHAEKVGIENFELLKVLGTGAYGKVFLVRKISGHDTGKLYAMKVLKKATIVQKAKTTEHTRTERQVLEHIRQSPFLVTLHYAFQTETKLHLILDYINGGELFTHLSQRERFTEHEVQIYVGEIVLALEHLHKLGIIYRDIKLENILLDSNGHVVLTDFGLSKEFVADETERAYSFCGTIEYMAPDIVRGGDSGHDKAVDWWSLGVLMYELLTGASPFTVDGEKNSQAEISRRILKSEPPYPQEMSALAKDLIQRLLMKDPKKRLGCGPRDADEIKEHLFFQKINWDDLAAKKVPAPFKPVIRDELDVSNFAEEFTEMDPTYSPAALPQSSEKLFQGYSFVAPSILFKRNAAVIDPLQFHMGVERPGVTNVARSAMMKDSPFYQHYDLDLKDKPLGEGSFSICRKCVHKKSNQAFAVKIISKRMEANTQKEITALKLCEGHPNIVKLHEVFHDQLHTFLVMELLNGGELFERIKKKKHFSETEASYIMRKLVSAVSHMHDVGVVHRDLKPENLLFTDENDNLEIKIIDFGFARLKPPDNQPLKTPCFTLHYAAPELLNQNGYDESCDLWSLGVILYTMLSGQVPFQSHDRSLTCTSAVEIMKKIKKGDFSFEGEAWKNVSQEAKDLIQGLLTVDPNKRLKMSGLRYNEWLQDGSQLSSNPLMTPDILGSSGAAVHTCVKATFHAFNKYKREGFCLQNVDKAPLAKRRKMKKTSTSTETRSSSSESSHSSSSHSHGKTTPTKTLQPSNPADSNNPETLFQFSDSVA
Protocol: as §1

PKA = molecular target: T2, PKA (Homo sapiens, UniProt P17612); experiment: as above; assay type: biochemical; conditions: FIG. 1C
T2 construct: purchased Caliper (PerkinElmer) ProfilerPro Kinase Kits
Protocol: as §1

PKGa = molecular target: T3, PKGa (Homo sapiens, UniProt Q13976); experiment: as above; assay type: biochemical; conditions: FIG. 1C
T3 construct: purchased Caliper (PerkinElmer) ProfilerPro Kinase Kits
T3 sequence (Q13976 1-671): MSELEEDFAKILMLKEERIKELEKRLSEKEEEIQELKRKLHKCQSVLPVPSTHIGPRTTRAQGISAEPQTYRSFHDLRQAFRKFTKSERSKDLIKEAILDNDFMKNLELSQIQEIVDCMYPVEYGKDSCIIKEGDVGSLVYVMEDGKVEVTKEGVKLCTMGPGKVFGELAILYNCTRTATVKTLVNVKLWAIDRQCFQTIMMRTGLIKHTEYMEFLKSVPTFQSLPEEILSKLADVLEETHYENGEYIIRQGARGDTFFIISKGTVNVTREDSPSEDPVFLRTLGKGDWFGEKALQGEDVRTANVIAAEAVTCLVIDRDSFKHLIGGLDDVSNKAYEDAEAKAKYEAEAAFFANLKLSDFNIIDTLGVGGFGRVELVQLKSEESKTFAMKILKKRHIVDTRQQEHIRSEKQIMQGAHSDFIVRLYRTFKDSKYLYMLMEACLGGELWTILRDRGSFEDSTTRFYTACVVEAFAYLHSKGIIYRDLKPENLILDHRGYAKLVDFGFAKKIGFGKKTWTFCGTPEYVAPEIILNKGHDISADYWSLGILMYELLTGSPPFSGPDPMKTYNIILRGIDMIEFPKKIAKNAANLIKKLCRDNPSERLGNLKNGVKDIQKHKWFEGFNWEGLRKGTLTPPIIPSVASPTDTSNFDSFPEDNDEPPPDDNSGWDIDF
Protocol: as §1

ROCK2 = molecular target: T4, ROCK2 (Homo sapiens, UniProt O75116); experiment: as above; assay type: biochemical; conditions: FIG. 1C
T4 construct: purchased Caliper (PerkinElmer) ProfilerPro Kinase Kits
T4 sequence (O75116 whole entry, species assumed): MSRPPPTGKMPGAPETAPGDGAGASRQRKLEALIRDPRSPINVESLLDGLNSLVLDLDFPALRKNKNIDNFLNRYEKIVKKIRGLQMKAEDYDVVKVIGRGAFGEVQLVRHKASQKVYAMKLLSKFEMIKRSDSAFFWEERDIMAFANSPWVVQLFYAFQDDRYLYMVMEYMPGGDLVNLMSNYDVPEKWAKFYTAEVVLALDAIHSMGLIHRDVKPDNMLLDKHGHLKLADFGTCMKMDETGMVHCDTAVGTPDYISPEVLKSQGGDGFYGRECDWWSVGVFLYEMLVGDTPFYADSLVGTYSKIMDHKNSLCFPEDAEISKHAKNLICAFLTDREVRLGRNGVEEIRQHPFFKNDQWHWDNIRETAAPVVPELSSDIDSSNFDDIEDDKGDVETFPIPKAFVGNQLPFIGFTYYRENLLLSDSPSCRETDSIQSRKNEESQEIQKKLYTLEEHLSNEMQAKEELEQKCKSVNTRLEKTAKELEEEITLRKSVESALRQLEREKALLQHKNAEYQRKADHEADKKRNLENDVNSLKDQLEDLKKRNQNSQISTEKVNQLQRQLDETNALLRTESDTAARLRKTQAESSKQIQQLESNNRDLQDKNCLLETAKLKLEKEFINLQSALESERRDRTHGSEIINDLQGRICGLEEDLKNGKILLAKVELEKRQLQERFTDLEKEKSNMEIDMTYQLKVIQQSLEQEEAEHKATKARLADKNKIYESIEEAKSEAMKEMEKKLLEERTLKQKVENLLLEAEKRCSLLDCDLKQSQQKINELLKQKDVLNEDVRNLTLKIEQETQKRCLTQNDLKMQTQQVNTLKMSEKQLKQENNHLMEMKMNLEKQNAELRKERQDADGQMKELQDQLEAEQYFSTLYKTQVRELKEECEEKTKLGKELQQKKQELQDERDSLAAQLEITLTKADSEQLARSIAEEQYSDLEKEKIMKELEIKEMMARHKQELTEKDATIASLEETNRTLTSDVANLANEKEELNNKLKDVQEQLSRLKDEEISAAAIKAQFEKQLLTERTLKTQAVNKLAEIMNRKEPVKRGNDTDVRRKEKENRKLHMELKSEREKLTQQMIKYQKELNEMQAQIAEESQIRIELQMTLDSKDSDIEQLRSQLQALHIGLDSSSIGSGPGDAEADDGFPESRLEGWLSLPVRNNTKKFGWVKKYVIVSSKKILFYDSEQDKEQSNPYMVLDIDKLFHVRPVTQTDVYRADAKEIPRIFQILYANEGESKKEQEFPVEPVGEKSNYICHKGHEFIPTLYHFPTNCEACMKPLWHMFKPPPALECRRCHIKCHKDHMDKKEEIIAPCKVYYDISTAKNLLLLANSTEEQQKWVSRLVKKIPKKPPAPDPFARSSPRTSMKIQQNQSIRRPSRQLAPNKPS
Protocol: as §1

SGK1 = molecular target: T5, SGK1 (Homo sapiens, UniProt O00141); experiment: as above; assay type: biochemical; conditions: FIG. 1C
T5 construct: purchased Caliper (PerkinElmer) ProfilerPro Kinase Kits
T5 sequence (O00141 1-431): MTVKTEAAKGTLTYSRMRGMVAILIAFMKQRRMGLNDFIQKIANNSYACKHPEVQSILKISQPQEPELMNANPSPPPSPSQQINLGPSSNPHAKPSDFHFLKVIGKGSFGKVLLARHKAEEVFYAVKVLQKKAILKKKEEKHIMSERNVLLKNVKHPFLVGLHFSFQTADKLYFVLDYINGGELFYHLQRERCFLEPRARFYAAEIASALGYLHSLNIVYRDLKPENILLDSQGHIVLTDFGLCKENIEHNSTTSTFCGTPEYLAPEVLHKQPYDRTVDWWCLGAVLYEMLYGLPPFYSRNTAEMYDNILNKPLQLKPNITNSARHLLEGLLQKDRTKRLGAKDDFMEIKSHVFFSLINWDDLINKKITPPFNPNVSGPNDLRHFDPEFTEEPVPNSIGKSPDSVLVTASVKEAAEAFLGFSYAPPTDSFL
Protocol: as §1

ESC-NSCs = experiment: Neural stem cell proliferation, ATP assay (CellTiterGlo); assay type: cell-based, human; conditions: ATP assay after four days, FIG. 1A
Protocol: Embryonic stem cell-derived neural stem cells (ESC-NSCs) were generated as previously described using dual SMAD inhibition protocol (Chambers et al., 2009). NSCs were cultured on POL coated plates at 37° C., 5% CO2 in N2B27 supplemented with bFGF (10 ng/ml), EGF (10 ng/ml), BDNF (20 ng/ml). For Compound B identification, NSCs were seeded on POL coated plates at 21000 cells/cm^2 in N2B27. After cell attachment (4 h), compounds were added at indicated concentrations. Negative control cells were treated with DMSO. Cells were incubated for four days and subsequently the amount of ATP was determined using the CellTiterGlo® kit (Promega) according to the manufacturer's instructions.

mesenchymal stem cells = experiment: Mesenchymal stem cell proliferation; assay type: cell-based; conditions: FIG. 1A
[1] = tested on: SCC058 foreskin fibroblasts; experiment: Sphere formation assay of fibroblasts in suspension culture; assay type: cell-based, human; conditions: day 3, FIG. 1B, 1D
Protocol: SCC058 foreskin fibroblasts (Millipore) were cultured at 37° C. and 5% CO2 in low serum FibroGro (Millipore). For conversion, 7300 cells/cm^2 were seeded in fibroblast medium containing 1 mM Valproic acid (VPA, Sigma). Then, cells were treated for two days with 1 mM VPA, and 6 μg/ml polybrene (Millipore) and subsequently transferred to low attachment plates in NSC medium for sphere formation. NSC medium consisted of NeuroCult NS-A proliferation medium (StemCell Technologies) supplemented with Penicillin/streptomycin, bFGF (20 ng/ml), EGF (20 ng/ml), BDNF (20 ng/ml), Heparin (2 μg/ml), D114 (500 ng/ml), Jagged1 (500 ng/ml), SHH (500 ng/ml, peprotech), Ascorbic Acid (0.2 mM, Sigma), FGF8a (100 ng/ml), 10% NSC-CM (medium conditioned by ESC-NSCs), and Compound B (2 μM, Roche).
• [3R,4R]-N-{4-[4-(2-Fluoro-6-hydroxy-3-methoxy-benzoyl)-benzoyl amino]-azep+an-3-yl}-4-hydroxy-3,5-dimethyl-benzamide hydrochlorid All growth factors were from R&D systems if not indicated otherwise. To compare effects of other inhibitors, Compound B was replaced by 2 μM Dorsomorphin, 10 uM H89 (Tocris), 10 μM Y27632, or 10 μM GSK650394 (Tocris), respectively. After four days, spheres were dissociated with Accutase and single cells were seeded in low attachment plates in NSC medium supplemented with inhibitor mix comprising 500 ng/ml Noggin (peprotech), 10 μM SB431452 (Tocris), and 1 μM CP21 (Roche).

[2] = tested on: fibroblast-derived secondary spheres; experiment: Attachment of secondary spheres to laminin substrate (POL); assay type: cell-based, human; conditions: two hours after plating on POL; FIG. 6
Protocol: • [3R,4R]-N-{4-[4-(2-Fluoro-6-hydroxy-3-methoxy-benzoyl)-benzoyl amino]-azep+an-3-yl}-4-hydroxy-3,5-dimethyl-benzamide hydrochlorid All growth factors were from R&D systems if not indicated otherwise. To compare effects of other inhibitors, Compound B was replaced by 2 μM Dorsomorphin, 10 uM H89 (Tocris), 10 μM Y27632, or 10 μM GSK650394 (Tocris), respectively. After four days, spheres were dissociated with Accutase and single cells were seeded in low attachment plates in NSC medium supplemented with inhibitor mix comprising 500 ng/ml Noggin (peprotech), 10 μM SB431452 (Tocris), and 1 μM CP21 (Roche). After 3 days, secondary spheres were seeded on polyornithine-laminin (POL) coated dishes. After attachment (24 hours), medium was replaced with differentiation medium comprising N2B27 (1:1 DMEM/F12 and Neurobasal with beta-mercaptoethanol (50 μM), B27 supplement without vitamin A (1:50, Invitrogen), and N2 supplement (1:100, Invitrogen)) supplemented with antibiotics, BDNF (20 ng/ml), GDNF (20 ng/ml), Laminin ([…]), Ascorbic Acid (0.2 mM) and dibutyryl-cAMP (0.5 mM, Sigma). Every other day, 50% of medium was exchanged. For the first seven days of differentiation, medium was supplemented with the inhibitor mix.

In the case of COc1ccc(O)c(C(=O)c2ccc(C(=O)N[C@@H]3CCCNC[C@H]3NC(=O)c3cc(C)c(O)c(C)c3)cc2)c1F.Cl [Compound B, N-{(3R,4R)-4-[4-(2-Fluoro-6-hydroxy-3-methoxy-benzoyl)-benzoylamino]-azepan-3-yl}-4-hydroxy-3,5-dimethyl-benzamide], the “inhibition of AMPK” value (AMPK) is reported as “over 80%”, the “inhibition of MSK1” value (MSK1) is reported as “over 80%” and the “inhibition of PKA” value (PKA) is reported as “over 80%”. The “inhibition of PKGa” value (PKGa) was “over 80%”, the “inhibition of ROCK2” value (ROCK2) was “over 80%” and the “inhibition of SGK1” value (SGK1) was “over 80%”. For the same compound, the “proliferation of neural stem cells” value (ESC-NSCs) was “promoted proliferation of ESC-NSCs in a dose-dependent manner”, the “effect on mesenchymal stem cells (proliferation)” value (mesenchymal stem cells) was “no effect” and the sphere size [1] was “significant increase”. For the same compound, the “total cell number in suspension culture” value [1] was “significant increase” and the “attachment and migration of spheres on laminin substrate” value [2] was “have attached and started to migrate”.

For O=S(=O)(NCCNC/C=C/c1ccc(Br)cc1)c1cccc2cnccc12 [Compound H89, reference compound], the sphere size [1] was “increase in sphere size, albeit not at the same extent as Compound B”.

For C[C@@H](N)[C@H]1CC[C@H](C(=O)Nc2ccncc2)CC1 [Compound Y27142, reference compound], the sphere size [1] was “increase in sphere size, albeit not at the same extent as Compound B”.
